Measurements taken from patent US12116611B2, “Method of treating intellectual disability, autism and epilepsy associated with an IQSEC2 mutation and for identifying medicaments for treating the same” (TECHNION RESEARCH & DEVELOPMENT FOUNDATION LIMITED, priority 2018, dated 2024).
“And” between values parts separate entries of the source, which are not always exact repeats. Equal entries are not always repeated. “Also recorded” adds a separate entry of the source. Where two headings read alike, the source gives them in different places.

Experiments:
[1] = system: calmodulin-IQSEC2 interaction; assay: Binding of luciferase-IQSEC2 to calmodulin-sepharose in vitro; set-up: species or system human; details: for EC50: read-out: Free calcium concentration for half-maximal binding of calcium-calmodulin to IQSEC2
Experimental: The binding of wild type and mutant IQSEC2 to calmodulin was assessed in vitro using calmodulin-sepharose (BioVision, Milipetas, CA). Extracts from stably transfected cells were prepared in either buffer A [50 mM Tris pH 7.5; 150 mM NaCl, 10 mg/ml BSA; 5 mM EGTA and 0.1% Triton X-100] or buffer B [10 mM Tris pH 7.5; 150 mM NaCl, 5 mM EGTA, 5% glycerol, 0.5% Triton X-100]. Extracts were clarified by centrifugation at 14000 rpm at 4° C. to remove insoluble debris and the amount of luciferase activity in the extract assessed using the Promega luciferase assay system and a Turner TD 20/20 luminometer. Extracts (10,000-100,000 luciferase units) were then incubated in buffer A or buffer B with or without CaCl2 in a total volume of 1 cc. The concentration of free calcium in the incubation conditions was calculated using the maxchelator algorithm (maxchelator.stanford.edu) which is based on the ionic strength, pH, temperature and dissociation constant of EGTA for calcium. The concentration of free calcium used in these studies ranged from 0.73 nM to 2 mM. 10 μl of calmodulin-sepharose was added to the incubation and mixed on a rotary apparatus for 3-4 hours. The calmodulin-sepharose was washed twice with binding buffer, resuspended in 100 μl of luciferase reagent lysis buffer and 20 μl was assessed for luciferase activity.
Investigation of this interaction in a cell-free system in vitro using luciferase tagged IQSEC2 and calmodulin coupled to sepharose allowed for the precise control of calcium concentration which is known to dramatically affect the conformation and interactions of calmodulin with other proteins. In this system luciferase activity associated with calmodulin sepharose was used a quantitative readout of the calmodulin-IQSEC2 interaction. The IQ motif is present in over 100 proteins and in some cases preferentially binds to calcium-calmodulin while in other cases it binds preferentially to calcium-free calmodulin (apocalmodulin) (Bahler and Rhoads, 2002). […] However, when the effect of calcium on the IQSEC2 calmodulin interaction was assessed, it was observed that calcium increased the binding of calmodulin to IQSEC2. Upon reviewing the buffers used by the research group in assessing binding of IQSEC2 to calmodulin, it was discovered that the concentration of Triton X-100 used in the binding and wash buffers was differed. […] Triton X-100 binds to most proteins via both hydrophobic and polar interactions [Singh and Kishore, 2006] and may thereby disrupt protein-protein interactions at high concentrations. […] The binding of wild type or A350V luciferase-IQSEC2 to calmodulin was assessed over a wide range of calcium concentrations.

calmodulin = calmodulin (Homo sapiens, UniProt P0DP23); details: Persechini and Cronk et al, 1999; read-out: Kd of calcium for calmodulin; cited from earlier work
endogenous Arf6 = assay: Arf6-GTP GGA3 pulldown assay in transfected HEK293T cells, with or without ionomycin; type: cell-based, human
Experimental: For the assessment of Arf6-GTP using a GGA-3 pulldown assay and western blot, HEK293T cells were transfected with FLAG-tagged WT, A350V, or R359C IQSEC2 in pCAGGS vector by calcium phosphate. Twenty-four hours after transfection, the cultures were treated with 5 μM ionomycin or ethanol vehicle for 5 mins, then lysed in 50 mM Tris-HCl, pH 7.5, 100 mM NaCl, 2 mM MgCl2, 0.2% SDS, 0.5% sodium deoxycholate, 1% Triton X-100, 10% glycerol, and 1× Halt protease inhibitor cocktail. An Arf6-GTP pull-down assay was carried out as described (Shoubridge et al, 2010). Briefly, lysates were cleared by centrifugation at 10,000 rpm for 10 min and incubated with GGA3:GST on glutathione-sepharose beads for 5 hours at 4° C. The beads were washed and bound proteins were eluted and probed by immunoblot with rabbit anti-Arf6 (1:750, Cell Signaling #5740). Lysates were also probed against total Arf6 and with rabbit anti-FLAG (1:1000; Covance #PRB-132P) to detect expression of FLAG-IQSEC2. Bands were visualized with the use of a LiCor Odyssey imaging system and quantified with Image Studio Lite. Each band was normalized to the untreated sham-transfected control. The data were statistically analyzed by one-way ANOVA followed by Tukey's Multiple Comparison Test for post-hoc analysis.
The activation of Arf6 (Arf6-GTP) by wild type, A350V, or R359C IQSEC2 in a GGA3 pulldown assay was also assessed. HEK 293T cells were transiently transfected with constructs to express either wild type, A350V or R359C IQSEC2, and endogenous Arf6 activation was tested with or without treatment with the calcium ionophore ionomycin. […] Cell lysates were incubated with beads coated with GGA3:GST to isolate the GTP-bound Arfs, and bound Arf6 was assessed by immunoblot (FIG. 4A).

| Structure (SMILES) | Change in binding of calmodulin to wild type IQSEC2 ([1]; 100 μM calcium, high (0.5%) Triton X-100) | Change in binding of calmodulin to wild type IQSEC2 ([1]; 100 uM calcium, low (0.1%) Triton X-100) | EC50 ([1]; A350V IQSEC2, 0.1% Triton X-100) [nM] | EC50 ([1]; wild type IQSEC2, 0.1% Triton X-100) [nM] | Kd (calmodulin) | Effect of ionomycin on Arf6 activation (endogenous Arf6; HEK293T cells transfected with A350V IQSEC2) | Effect of ionomycin on Arf6-GTP induction (endogenous Arf6; HEK293T cells transfected with R359C IQSEC2) | Arf6 activation (Arf6-GTP) compared to sham transfected cells (endogenous Arf6; HEK293T cells transfected with wild type IQSEC2, 5 μM ionomycin for 5 mins) [fold increase] |
| --- | --- | --- | --- | --- | --- | --- | --- | --- |
| [Ca+2] [calcium] | several fold decrease; also recorded: significant decrease | several fold increase; also recorded: significant increase | ~1000 | ~1000 | 1000 nM and ~1000 nM | – | – | – |
| C[C@H](CCC(=O)O)C[C@H](C)C[C@H](C)C(=O)/C=C(\O)[C@H](C)C[C@H](C)C/C=C/[C@@H](C)[C@@H](O)[C@@H](C)[C@@H](O)C[C@@H]1CC[C@@](C)([C@H]2CC[C@@](C)([C@@H](C)O)O2)O1 [ionomycin] | – | – | – | – | – | did not further increase Arf6 activation | unresponsive | 8.03±1.89 |
